What was measured:
[1] = Gravimetric vapour sorption (GVS); format: physicochemical
Protocol: Approximately 10-20 mg of sample was placed into a mesh vapour sorption balance pan and loaded into an IGASorp Moisture Sorption Analyser balance by Hiden Analytical. The sample was subjected to a ramping profile from 40-90% relative humidity (RH) at 10% increments, maintaining the sample at each step until a stable weight had been achieved (98% step completion, minimum step length 30 minutes, maximum step length 60 minutes) at 25° C. After completion of the sorption cycle, the sample was dried using the same procedure to 0% RH, and finally taken back to the starting point of 40% RH. Two cycles were performed. The weight change during the sorption/desorption cycles were plotted, allowing for the hygroscopic nature of the sample to be determined.

[2] = Solubility assessment in unbuffered water and pH buffers; format: physicochemical; details: solution in unbuffered water
Protocol: 100 μL of the appropriate buffer was added to form a slurry.

[3] = tested on: α-syn aggregation; experiment: α-synuclein aggregation in TH(+) neurons after rotenone injury; format: cell-based, rat; details: rotenone 10 nM 24 h
Protocol: (§1) Rat dopaminergic neurons were cultured as described by Visanji et al. in FASEB J. 2008, 22(7): 2488-2497 and Callizot et al., in Plos One 2019: https://doi.org/10.1371/journal.pone.0215277. Briefly, pregnant female rat (Wistar) of 15 days of gestation were killed using a deep anesthesia with CO2 chamber and a cervical dislocation. The midbrains obtained from 15-day-old rat embryos (Janvier, France) were dissected under a microscope. The embryonic midbrains were removed and placed in ice-cold medium of Leibovitz (L15) containing 2% of Penicillin-Streptomycin (PS) and 1% of BSA. The ventral portion of the mesencephalic flexure, a region of the developing brain rich in dopaminergic neurons, were used for the cell preparations. The midbrains were dissociated by trypsinization for 20 min at 37° C. (solution at a final concentration of 0.05% trypsin and 0.02% EDTA). The reaction was stopped by the addition of DMEM containing DNAase I grade II (0.5 mg/mL) and 10% of FCS. […] Viable cells were counted in a Neubauer cytometer using the trypan blue exclusion test. […]
(§2) The following read-outs were investigated: • neuron survival: total number of TH neurons (TH staining), • neurite network: total length of neurite network of TH positive neurons (in μm) • α-syn aggregation (area of overlapping between TH and α-syn staining in μm^2) […]

[4] = tested on: α-syn aggregation; experiment: α-synuclein aggregation in TH(+) neurons after MPP+ injury; format: cell-based, rat; details: MPP+ 4 μM 48 h
Protocol: as §1, §2

[5] = Variable humidity XRPD (VH-XRPD); format: physicochemical; details: exposure to 90% RH for up to 1 hour and 30 minutes
Protocol: VH-XRPD analysis was carried out on a Philips X'Pert Pro Multipurpose diffractometer equipped with a humidity chamber. The samples were scanned between 4 and 35.99° 20 using Cu K radiation (α1 λ=1.54060 Å; α2=1.54443 Å; β=1.39225 Å; α1: α2 ratio=0.5) running in Bragg-Brentano geometry (step size 0.008 °2θ) using 40 kV/40 mA generator settings. Measurements were performed at 50%, 60%, 70%, 80%, 90%. The sample was held at 90% for an hour and 30 minutes. Measurements were taken at 30-minute intervals.

## N-(3-(4-(3-(diisobutylamino)propyl)piperazin-1-yl)propyl)-1H-benzo[d]imidazol-2-amine sesqui-succinate salt [sesqui-succinate salt Form 1]
[1]; after exposure to GVS humidity conditions
  Post-GVS XRPD crystalline form: remain as the same crystalline form
[1]; at 70% RH, 25° C.
  GVS weight uptake: ca. +0.1 wt. %
[1]; up to 90% RH
  GVS water uptake in equivalents: approximately 7.1 equiv. water
[1]; up to 90% RH, 25° C.
  GVS weight increase: ca. +18.9 wt. %
[1]; up to 90% relative humidity
  hygroscopicity: not hygroscopic
[2]
  pH measurement: 5.28
[3]; 100 nM co-administered
  α-syn aggregation: prevented
[3]; pre-incubated or applied directly with rotenone, 10 to 100 nM
  α-syn aggregation: significantly reduced
[4]; coincubation, 50 or 100 nM
  α-syn aggregation: significantly reduced
[4]; pre-incubation, all tested concentrations
  α-syn aggregation: significantly reduced
[5]
  VH-XRPD crystalline form: no change to crystallinity or form

— patent US20230391729A1, “SUCCINATE SALTS OF N-(3-(4-(3-(DIISOBUTYLAMINO)PROPYL)PIPERAZIN-1-YL)PROPYL)-1H-BENZO[D]IMIDAZOL-2-AMINE, PREPARATION THEREOF AND USE OF THE SAME” (ALZPROTECT, priority 2020, published 2023)
